Data published in ChEMBL document CHEMBL3881525, “Analogs of dehydrophenylahistins and their therapeutic use” (2007).
The source made the active and inactive calls. No cut-off for these calls is given here.

How the values were obtained:
[1] = Cytotoxicity against human HT-29 cells assessed as reduction in cell viability measured after 48 hrs by resazurin dye-based fluorometric analysis relative to control; assay type: functional
[2] = Cytotoxicity against mouse B16F10 cells assessed as reduction in cell viability measured after 48 hrs by resazurin dye-based fluorometric analysis; assay type: functional; settings: B16-F10, 48 h
[3] = Antiproliferative activity against taxol-sensitive human MES-SA cells […]; assay type: functional, cell-based
[4] = Antiproliferative activity against taxol-resistant human MES-SA/Dx5 cells expressing MDR1 mRNA and P-gp; assay type: functional, cell-based
Tubulin (Homo sapiens) [5] = target: T1, Tubulin (Homo sapiens) (UniProt P68371+Q9H4B7+P0DPH7+P68366+Q13509+Q71U36+P04350+Q3ZCM7+P07437+P68363+Q9BQE3+Q6PEY2+Q13885+Q9BVA1+Q9BUF5); experiment: Induction of microtubule depolymerization in HUVEC at 2 uM measured after 30 mins; assay type: cell-based
Tubulin (Homo sapiens) [6] = target: T1, Tubulin (Homo sapiens); experiment: Induction of microtubule depolymerization in HUVEC assessed as cell membrane blebbing at 2 uM measured after 30 mins; assay type: cell-based
Jurkat = experiment: Induction of apoptosis in human Jurkat cells assessed as caspase3 activation; assay type: functional, cell-based
[7] = Antitumor activity against human HT-29 cells xenografted in nude mouse assessed as tumor growth inhibition at 7.5 mg/kg, ip administered every third day for 5 days relative to control; assay type: functional; settings: HT-29, ip, 120 h, read-out: TGI
MCF7 [8] = experiment: Potentiation of taxotere-induced antitumor activity against human MCF7 cells xenografted in nude mouse assessed as tumor growth inhibition at 7.5 mg/kg, ip qd for 4 days measured on day 7; assay type: functional, organism-based
[9] = Antifungal activity against Trichophyton rubrum isolate 2 measured after 48 hrs by broth dilution method; assay type: functional
[10] = Antifungal activity against Epidermophyton floccosum isolate 1 measured after 48 hrs by broth dilution method; assay type: functional
[11] = Antifungal activity against Epidermophyton floccosum isolate 2 measured after 48 hrs by broth dilution method; assay type: functional
Mus musculus = experiment: Antivascular activity against mouse N202 tumor spheroids expressing H2B-GFP allografted in mouse assessed as inhibition of tumor-induced central vasculature at 5 mg/kg, iv administered on day 12 as infusion for 2 mins measured on day 15 by fluorescence video microscopy; assay type: functional, organism-based
[12] = Toxicity in mouse allografted with mouse N202 tumor spheroids expressing H2B-GFP at 10 mg/kg, iv administered on day 13 as infusion for 5 mins; assay type: organism-based; settings: in vivo
[13] = Toxicity in mouse allografted with mouse N202 tumor spheroids expressing H2B-GFP at 5 mg/kg, iv administered on day 12 as infusion for 2 mins; assay type: organism-based; settings: in vivo
[14] = Toxicity in mouse allografted with mouse N202 tumor spheroids expressing H2B-GFP assessed as effect on tumor surrounding vasculature in the dorsal skin fold at 10 mg/kg, iv administered on day 12 as infusion for 5 mins measured on day 15; assay type: organism-based; settings: in vivo
[15] = target: Tubulin alpha (Homo sapiens) (UniProt P0DPH7+P68366+Q71U36+P68363+Q9BQE3+Q6PEY2+A6NHL2+Q9NY65); experiment: Induction of alpha-tubulin depolymerization in HUVEC at 200 nM measured after 30 mins by DAPI staining based indirect immunofluorescence analysis; assay type: cell-based
HUVEC = experiment: Induction of monolayer permeability in HUVEC measured up to 15 mins; assay type: functional, cell-based; settings: Homo sapiens
Rattus norvegicus [16] = experiment: Effect on blood flow in rat skin at 15 mg/kg, ip measured after 1 hr by [125I]iodoantipyrine based method relative to vehicle control; assay type: ADME, organism-based; settings: in vivo
Rattus norvegicus [17] = experiment: Effect on blood flow in rat muscle at 15 mg/kg, ip measured after 1 hr by [125I]iodoantipyrine based method relative to vehicle control; assay type: ADME, organism-based; settings: in vivo
Rattus norvegicus [18] = experiment: Effect on blood flow in rat heart at 15 mg/kg, ip measured after 1 hr by [125I]iodoantipyrine based method relative to vehicle control; assay type: ADME, organism-based; settings: in vivo
Rattus norvegicus [19] = experiment: Effect on blood flow in rat spleen at 15 mg/kg, ip measured after 1 hr by [125I]iodoantipyrine based method relative to vehicle control; assay type: ADME, organism-based; settings: in vivo
Rattus norvegicus [20] = experiment: Reduction in blood flow in rat kidney at 15 mg/kg, ip measured after 24 hrs by [125I]iodoantipyrine based method relative to vehicle control; assay type: ADME, organism-based; settings: in vivo
Rattus norvegicus [21] = experiment: Reduction in blood flow in rat gut at 15 mg/kg, ip measured after 24 hrs by [125I]iodoantipyrine based method relative to vehicle control; assay type: ADME, organism-based; settings: in vivo
Rattus norvegicus [22] = experiment: Increase in blood flow in rat skeletal muscle at 15 mg/kg, ip measured after 24 hrs by [125I]iodoantipyrine based method relative to vehicle control; assay type: ADME, organism-based; settings: in vivo
Tubulin (Homo sapiens) [23] = target: T1, Tubulin (Homo sapiens); experiment: Induction of microtubule dynamic instability in human MCF7 cells assessed as effect on spindle morphology at mitotic block IC25 measured after 20 hrs by immunofluorescence analysis; assay type: cell-based
MCF7 [24] = experiment: Antimitotic activity in human MCF7 cells assessed as bipolar cells with uncompressed chromosomes at mitotic block IC50 measured after 20 hrs by immunofluorescence analysis relative to control; assay type: functional
MCF7 [25] = experiment: Antimitotic activity in human MCF7 cells assessed as microtubule polymer at twice mitotic block IC50 measured after 20 hrs by immunofluorescence analysis relative to control; assay type: functional, cell-based
Tubulin (Homo sapiens) [26] = target: T1, Tubulin (Homo sapiens); experiment: Induction of microtubule instability in human MCF7 cells assessed as mean shortening rate at IC25 for mitotic block measured after 20 hrs by immunofluorescence analysis; assay type: cell-based
Tubulin (Homo sapiens) [27] = target: T1, Tubulin (Homo sapiens); experiment: Induction of microtubule instability in human MCF7 cells assessed as time spent for attenuation at IC25 for mitotic block measured after 20 hrs by immunofluorescence analysis; assay type: cell-based
Tubulin (Homo sapiens) [28] = target: T1, Tubulin (Homo sapiens); experiment: Induction of microtubule instability in human MCF7 cells assessed as mean growth rate at IC50 for mitotic block measured after 20 hrs by immunofluorescence analysis; assay type: cell-based
Tubulin (Homo sapiens) [29] = target: T1, Tubulin (Homo sapiens); experiment: Induction of microtubule instability in human MCF7 cells assessed as time spent for growth at IC50 for mitotic block measured after 20 hrs by immunofluorescence analysis; assay type: cell-based
Tubulin (Homo sapiens) [30] = target: T1, Tubulin (Homo sapiens); experiment: Induction of microtubule dynamic instability in human MCF7 cells at IC50 for mitotic block measured after 20 hrs by immunofluorescence analysis; assay type: cell-based
Tubulin (Homo sapiens) [31] = target: T1, Tubulin (Homo sapiens); experiment: Time required for induction of microtubule dynamic instability in human MCF7 cells at IC50 for mitotic block measured after 20 hrs by immunofluorescence analysis; assay type: cell-based
Tubulin (Homo sapiens) [32] = target: T1, Tubulin (Homo sapiens); experiment: Induction of microtubule dynamic instability in human MCF7 cells at IC25 for mitotic block measured after 20 hrs by immunofluorescence analysis; assay type: cell-based
Tubulin (Homo sapiens) [33] = target: T1, Tubulin (Homo sapiens); experiment: Time required for induction of microtubule dynamic instability in human MCF7 cells at IC25 for mitotic block measured after 20 hrs by immunofluorescence analysis; assay type: cell-based
[34] = target: Cyclin-dependent kinase 1/cyclin B1 (Homo sapiens) (UniProt P06493+P14635); settings: 10 uM
Description: Inhibition of human CDK1/human cyclinB at 10 uM in presence of ATP

Tubulin (Bos taurus) [35] = target: T2, Tubulin (Bos taurus) (UniProt Q6B856+Q862L2+Q862F3); settings: 1.25 to 5 uM
Tubulin (Bos taurus) [36] = target: T2, Tubulin (Bos taurus); settings: 10 uM
Description: Inhibition of [3H]CLC binding to bovine brain tubulin at 10 uM measured after 120 mins in presence of GTP by scintillation counting method

Chain of Cyclin-dependent kinase 1/cyclin B1 (Homo sapiens) (P06493 whole entry, looked up): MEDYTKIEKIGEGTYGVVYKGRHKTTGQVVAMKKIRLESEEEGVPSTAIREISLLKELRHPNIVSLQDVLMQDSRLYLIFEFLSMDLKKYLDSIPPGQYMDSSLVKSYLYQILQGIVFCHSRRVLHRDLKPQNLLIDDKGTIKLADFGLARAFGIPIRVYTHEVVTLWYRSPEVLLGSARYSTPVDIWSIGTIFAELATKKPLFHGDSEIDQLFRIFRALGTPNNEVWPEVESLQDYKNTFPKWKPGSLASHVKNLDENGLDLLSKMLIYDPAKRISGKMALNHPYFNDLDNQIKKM
Chain of Cyclin-dependent kinase 1/cyclin B1 (Homo sapiens) (P14635 whole entry, looked up): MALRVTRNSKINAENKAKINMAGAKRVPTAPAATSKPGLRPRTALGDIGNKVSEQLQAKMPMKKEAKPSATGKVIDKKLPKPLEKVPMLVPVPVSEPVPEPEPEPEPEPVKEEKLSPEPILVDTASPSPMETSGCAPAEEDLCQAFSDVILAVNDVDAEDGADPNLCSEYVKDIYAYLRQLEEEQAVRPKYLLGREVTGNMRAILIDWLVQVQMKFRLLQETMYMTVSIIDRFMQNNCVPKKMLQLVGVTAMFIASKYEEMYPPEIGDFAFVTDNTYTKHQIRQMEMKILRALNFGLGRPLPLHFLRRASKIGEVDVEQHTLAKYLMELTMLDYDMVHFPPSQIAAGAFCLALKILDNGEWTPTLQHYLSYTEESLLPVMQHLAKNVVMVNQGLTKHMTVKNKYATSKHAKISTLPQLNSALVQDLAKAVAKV

In the case of `CC(C)(C)c1[nH]cnc1/C=c1\[nH]c(=O)/c(=C/c2ccccc2)[nH]c1=O` [PLINABULIN], the “inhibition (INH)” value [1] is reported as 82.5 - 88%, the EC50 [2] is reported as 37.1 nM and the EC50 [3] is reported as 8.5 to 34 nM. For the same compound, the IC50 [4] was 10.5 to 23 nM, the Activity (Tubulin (Homo sapiens) [5]) was “Active” and the Activity (Tubulin (Homo sapiens) [6]) was “Active”. For the same compound, the Activity (Jurkat) was “Dose-dependent effect”, the inhibition in vivo at 7.5 mg/kg [7] was 9% and the TGI (MCF7 [8]) was “Active”. The MIC [9] was under 0.03 µg/mL, the MIC [10] was over 16 µg/mL and the MIC [11] was over 16 µg/mL. The inhibition (Mus musculus) was “Active”, the Activity [12] was “Non-Toxic” and the Activity [13] was “Non-Toxic”. The Activity [14] was “Non-Toxic”, the Activity [15] was “Active” and the Activity (HUVEC) was “Dose-dependent effect”. For the same compound, the Activity (Rattus norvegicus [16]) was “Non-Toxic”, the Activity (Rattus norvegicus [17]) was “Non-Toxic” and the Activity (Rattus norvegicus [18]) was “Non-Toxic”. The Activity (Rattus norvegicus [19]) was “Non-Toxic”, the Activity (Rattus norvegicus [20]) was “Toxic” and the Activity (Rattus norvegicus [21]) was “Toxic”. The Activity (Rattus norvegicus [22]) was “Toxic”, the Activity (Tubulin (Homo sapiens) [23]) was “Active” and the Activity (MCF7 [24]) was “Active”. The Activity (MCF7 [25]) was “Active”, the Activity (Tubulin (Homo sapiens) [26]) was 31.9 um/min and the Activity (Tubulin (Homo sapiens) [27]) was 49.8%. For the same compound, the TIME (Tubulin (Homo sapiens) [27]) was 0.0122 h, the Activity (Tubulin (Homo sapiens) [28]) was 10.6 um/min and the Activity (Tubulin (Homo sapiens) [29]) was 33%. It also gave a TIME (Tubulin (Homo sapiens) [29]) of 0.005 h, an Activity (Tubulin (Homo sapiens) [30]) of 10.6 um/min and a TIME (Tubulin (Homo sapiens) [31]) of 0.552 h. It also gave an Activity (Tubulin (Homo sapiens) [32]) of 10.1 um/min, a TIME (Tubulin (Homo sapiens) [33]) of 0.728 h and an inhibition [34] of over 50%. For the same compound, the inhibition (Tubulin (Bos taurus) [35]) was “Active” and the inhibition (Tubulin (Bos taurus) [36]) was “Active”.
